Literature values, collected in patent US20070092573A1, “STABILIZED EXTENDED RELEASE PHARMACEUTICAL COMPOSITIONS COMPRISING A BETA-ADRENORECEPTOR ANTAGONIST” (priority 2005, published 2007).

SMILES: COCCc1ccc(OCC(O)CNC(C)C)cc1 (stereo not shown) [Metoprolol Succinate]
- water solubility: highly water-soluble
